In patent US20120190059A1, “METHODS FOR OBTAINING HEPATOCYTES, HEPATIC ENDODERM CELLS AND HEPATIC PROGENITOR CELLS BY INDUCED DIFFERENTIATION” (BEIJING HUAYU[…]., LTD., priority 2009, published 2012):

Tested on: cytochrome p450
Experiment: PROD detection of cytochrome p450 activity in differentiated hepatocyte-like cells
Conditions: phenobarbital induction versus no induction, hepatocyte-like cells differentiated from hepatic progenitor cells

CCC1(c2ccccc2)C(=O)NC(=O)NC1=O [Phenobarbital]
PROD activity of the differentiated cells: could improve the PROD activity
PROD activity of the differentiated cells (listed as phenobarbital): PROD activity was enhanced
